Several values for one entry are separate records, joined by “and”; a condition that tells them apart may be missing. Identical values can stand only once. Like-named read-outs stand apart in the source and are kept apart here. One block for each molecule: values may come before it.
Key:
[1] = cited from earlier work
[2] = Phase 1: chemical distribution from whole milk into milk fat and skim milk; assay type: physicochemical, cow; conditions: for distribution into milk fat, percent of total amount added: mean of all doses; for ratio of concentration in milk fat to initial concentration in whole milk / ratio of concentration in skim milk to initial concentration in whole milk: mean of dose means
[3] = Phase 2: chemical distribution from skim milk into curd and whey; assay type: physicochemical, cow; conditions: for concentration ratio of 0% moisture curd to whey: dry matter basis; for Curd Fraction % Dose: phase 2, based on skim milk; for curd/whey concentration ratio: curd as obtained (70% moisture)
[4] = cited from earlier work; for log P / log D (pH 7.4): discussion compounds, Table S4
[5] = cited from earlier work; remark: listed apart in the source
[6] = Literature reports of residue distribution in milk products; design: species or system cow; conditions: 15% of whole milk in their study, 10% in ours; from ref 18 data
[7] = cited from earlier work; remark: listed apart in the source

Molecule: Clc1cc2c(cc1Cl)Oc1cc(Cl)c(Cl)cc1O2 [2,3,7,8-TCDD]
residues in cream exceeding those in milk, factor ([1]; lactating dairy cows, medium heavy cream): about 10

Molecule: Oc1c(Cl)cc2c(c1Cl)Oc1cc(Cl)c(Cl)cc1O2 [2-OH-1378-TCDD, 2-hydroxy-1,3,7,8-tetrachlorodibenzo-p-dioxin]
reduction in milk fat distribution by hydroxylation ([2]; 2-OH-1378-TCDD compared with 1278-TCDD): ~30% | distribution into milk fat, percent of total amount added [2]: 54% | ratio of concentration in milk fat to initial concentration in whole milk [2]: 11.2 | greater distribution into whey compared to the unsubstituted analogue ([3]; 2-OH-1378-TCDD vs 1278-TCDD, 3′-MeSO2-PCB-101 vs PCB-118): ~30% | percent of whole milk chemical distributed to whey ([3]; based on whole milk): About 25% | concentration ratio of 0% moisture curd to whey ([3]; mean of doses): 18 | chemical distributed into whey, percent of chemical in skim milk ([3]; mean of doses): 35–60% | chemical retained in the curd fraction, percent of chemical in skim milk ([3]; mean of doses): 40–60%

Molecule: Clc1cc2c(cc1Cl)Oc1c(ccc(Cl)c1Cl)O2 [1278-TCDD, 1,2,7,8-tetrachlorodibenzo-p-dioxin]
distribution into milk fat, percent of total amount added [2]: > 80% | ratio of concentration in milk fat to initial concentration in whole milk [2]: 18–20 and 18.7 | concentration ratio of 0% moisture curd to whey ([3]; mean of doses): 115 | chemical retained in the curd fraction, percent of chemical in skim milk ([3]; mean of doses): ~80%

Molecule: Brc1ccc(Oc2cc(Br)c(Br)cc2Br)c(Br)c1 [BDE-99, 2,2′,4,4′,5-pentabromodiphenyl ether]
distribution into milk fat, percent of total amount added [2]: > 80% | ratio of concentration in milk fat to initial concentration in whole milk [2]: 18–20 | concentration ratio of 0% moisture curd to whey ([3]; mean of doses): 327 | chemical retained in the curd fraction, percent of chemical in skim milk ([3]; mean of doses): ~80% | Curd Fraction % Dose ([3]; nominal 20 nM in whole milk): 73% | Curd Fraction % Dose ([3]; nominal 200 nM in whole milk): 80% | Curd Fraction % Dose ([3]; nominal 2000 nM in whole milk): 92%

distribution into milk fat, percent of total amount added [2]: 39% | curd/whey concentration ratio ([3]; mean of doses): 29 | concentration ratio of 0% moisture curd to whey ([3]; mean of doses): 111
Molecule: CC(C)(c1ccc(O)cc1)c1ccc(O)cc1 [BPA, bisphenol A]

Molecule: Clc1ccc(C(c2ccc(Cl)cc2)C(Cl)(Cl)Cl)cc1 [DDT, dichlorodiphenyltrichloroethane]
starting DDT degraded to DDE and DDD ([1]; during the manufacturing of cheese): 27–53% | concentration in Swiss-type cheese relative to original whole milk ([1]; milk of dairy cows fed DDT): ~8 times | cream/whole milk ratio ([1]; pasteurized milk): 12 | cream/whole milk ratio ([1]; raw milk): 9.0 | log P [4]: 5.92 | log D (pH 7.4) [4]: 6.22

distribution into milk fat, percent of total amount added [2]: 74% | ratio of concentration in milk fat to initial concentration in whole milk [2]: 15.8 and ~16 | curd/whey concentration ratio ([3]; mean of doses): 24 | concentration ratio of 0% moisture curd to whey ([3]; mean of doses): 104
Molecule: C[C@]12CC[C@@H]3c4ccc(O)cc4CC[C@H]3[C@@H]1CCC2=O [E1, estrone]

Molecule: CC[C@H]1OC(=O)[C@H](C)[C@@H](O[C@H]2C[C@@](C)(OC)[C@@H](O)[C@H](C)O2)[C@H](C)[C@@H](O[C@@H]2O[C@H](C)C[C@H](N(C)C)[C@H]2O)[C@](C)(O)C[C@@H](C)C(=O)[C@H](C)[C@@H](O)[C@]1(C)O [ERY, erythromycin]
curd/whey concentration ratio [5]: 2.4

Molecule: O=C(O)CNCP(=O)(O)O [GLY, glyphosate]
distribution into milk fat, percent of total amount added [2]: 0.95% | ratio of concentration in milk fat to initial concentration in whole milk [2]: 0.2 | ratio of concentration in skim milk to initial concentration in whole milk [2]: ~1 | curd/whey concentration ratio ([3]; mean of doses): 1.4 | concentration ratio of 0% moisture curd to whey ([3]; mean of doses): 2.5 | chemical retained in the curd fraction, percent of chemical in skim milk ([3]; mean of doses): approximately 16.5%

Molecule: O=[N+]([O-])NC1=NCCN1Cc1ccc(Cl)nc1 [IMI, imidacloprid]
distribution into milk fat, percent of total amount added [2]: 2.5% | ratio of concentration in skim milk to initial concentration in whole milk [2]: ~1 | curd/whey concentration ratio ([3]; mean of doses): 2.4 | concentration ratio of 0% moisture curd to whey ([3]; mean of doses): 9.2 | chemical retained in the curd fraction, percent of chemical in skim milk ([3]; mean of doses): 23.7%

Molecule: CN(C)[C@@H]1C(O)=C(C(N)=O)C(=O)[C@@]2(O)C(O)=C3C(=O)c4c(O)cccc4[C@@](C)(O)[C@H]3[C@H](O)[C@@H]12 [OTET, oxytetracycline]
curd/whey concentration ratio [5]: 1.4

Molecule: Clc1ccc(-c2cc(Cl)c(Cl)cc2Cl)cc1Cl [PCB-118, 2,3′,4,4′,5-pentachlorobiphenyl]
distribution into milk fat, percent of total amount added [2]: > 80% | ratio of concentration in milk fat to initial concentration in whole milk [2]: 18–20 and 19.5 | concentration ratio of 0% moisture curd to whey ([3]; mean of doses): 136 | chemical retained in the curd fraction, percent of chemical in skim milk ([3]; mean of doses): ~80%

Molecule: CC1(C)S[C@@H]2[C@H](NC(=O)Cc3ccccc3)C(=O)N2[C@H]1C(=O)O [PENG, penicillin G]
curd/whey concentration ratio [5]: 1.2

Molecule: CS(=O)(=O)c1ccc([C@@H](O)[C@@H](CO)NC(=O)C(Cl)Cl)cc1 [TAP, thiamphenicol]
curd/whey concentration ratio [5]: 1.3

distribution into milk fat, percent of total amount added [2]: > 80% and 85% | ratio of concentration in milk fat to initial concentration in whole milk [2]: 18–20 and 17.6 | concentration ratio of 0% moisture curd to whey ([3]; mean of doses): 46 | chemical distributed into whey, percent of chemical in skim milk ([3]; mean of doses): 35–60% | chemical retained in the curd fraction, percent of chemical in skim milk ([3]; mean of doses): 40–60% | percent of skim milk chemical in 0% moisture curd ([3]; mean of doses): 57%
Molecule: O=C(Nc1ccc(Cl)cc1)Nc1ccc(Cl)c(Cl)c1 [TCC, triclocarban]

Molecule: CC(=O)Nc1ccc(O)cc1 [TYL, acetaminophen]
curd/whey concentration ratio [5]: 1.5

Molecule: CNP(=O)(OC)Oc1ccc(C(C)(C)C)cc1Cl (stereo not shown) [cruformate]
concentration into cream adjusted to reflect lipid mass yield [6]: ~7.6 fold | concentration into cream relative to whole milk ([1]; fed to cows): fivefold | curd/whey concentration ratio ([1]; starting milk concentration 0.07 ppm): 22 | curd/whey concentration ratio ([1]; starting milk concentration 0.16 ppm): 31 | log P [4]: 3.33

Molecule: ClC1=C(Cl)C2(Cl)C3C4CC(C5OC45)C3C1(Cl)C2(Cl)Cl (stereo not shown) [endrin]
curd/whey concentration ratio [1]: 91 | log P [4]: 4.9 | log D (pH 7.4) [4]: 4.9

Molecule: COP(=S)(OC)Oc1ccc(SC)c(C)c1 [fenthion]
concentration ratio of fat/whole milk [1]: ~5 | percent found in the fat fractions [1]: 80–90% | log P [4]: 3.21

Molecule: ClC1=C(Cl)C2(Cl)C3C(Cl)C=CC3C1(Cl)C2(Cl)Cl (stereo not shown) [heptachlor]
curd/whey concentration ratio [1]: 22 | log P [4]: 5.46

Molecule: Cl[C@H]1[C@H](Cl)[C@@H](Cl)[C@@H](Cl)[C@H](Cl)[C@H]1Cl [lindane, 1,2,3,4,5,6-hexachlorcyclohexane]
concentration in curd relative to whey [1]: approximately 12 times | reduction by pasteurization [1]: 65–73% | losses in Ras cheese ([1]; during 6 months in storage): 36.7% | losses during refrigeration of yogurt ([1]; over 3 days): 1.4–8% | log P [4]: 3.99

Molecule: ivermectin [IVR]
milk fat/whole milk concentration ratio [7]: 18.4 | log P, parenthesis value ([4]; Table S1, value cited in the earlier paper): 6.61

— paper PMC6645336 (ACS Omega, 2018)
